# Test results from patent publication US12678433B2, “Compounds for treatment of hemolysis-and inflammasome-associated diseases” (New York Blood Center, Inc., priority 2020, dated 2026).
# B1: hemopexin: a heme scavenging protein (protein, UniProt P02790 24-462, looked up)
# Hemopexin: TPLPPTSAHGNVAEGETKPDPDVTERCSDGWSFDATTLDDNGTMLFFKGEFVWKSHKWDRELISERWKNFPSPVDAAFRQGHNSVFLIKGDKVWVYPPEKKEKGYPKLLQDEFPGIPSPLDAAVECHRGECQAEGVLFFQGDREWFWDLATGTMKERSWPAVGNCSSALRWLGRYYCFQGNQFLRFDPVRGEVPPRYPRDVRDYFMPCPGRGHGHRNGTGHGNSTHHGPEYMRCSPHLVLSALTSDNHGATYAFSGTHYWRLDTSRDGWHSWPIAHQWPQGPSAVDAAFSWEEKLYLVQGTQVYVFLTKGGYTLVSGYPKRLEKEVGTPHGIILDSVDAAFICPGSSRLHIMAGRRLWWLDLKSGAQATWTELPWPHEKVDGALCMEKSLGPNSCSANGPGLYLIHGPNLYCYSDVEKLNAAKALPQPQNVTSLLGCTH
# Tests used:
# [1] = test system: purified naïve B cells from healthy donors; details: for effect on plasma cell differentiation without or with heme: 2.5 μM compound, without or with 5 μM heme; for inhibition of B cell proliferation / inhibition of plasma cell differentiation: at the highest concentrations
# Experimental: Hemin and RBC lysate preparation. Hemin, dissolved in dimethyl sulfoxide (DMSO), stock concentration 10 mM, was diluted to 100 μM with serum-free RPMI 1640 culture medium just prior to addition to B cell cultures. For short-term experiments lasting less than 24 hr, a final concentration of 10 μM hemin was used whereas for longer-term culture up to 7 days, 2.5-5 μM final heme concentration was used. RBC lysates were freshly prepared (containing ~80 g/L hemoglobin) for same day use. Briefly, 4 ml whole blood from healthy donors was passed through Acrodisc WBC syringe filter (Pall Corporation) to remove white blood cells followed by two washes with Dulbecco's Phosphate Buffered Saline (D-PBS) (200×g, 10 min at room temperature with no brake) for removal of platelets. The RBC pellet was lysed with 3 times volume of distilled water for 10 min at 37° C. Cellular debris was pelleted by centrifugation at 4000×g for 10 min at 4° C. The RBC lysate was transferred to a new tube and 1/9 volume of 10×D-PBS added.
# Cell isolation and culture. Peripheral blood mononuclear cells (PBMCs) were prepared by Ficoll (GE Healthcare) density gradient centrifugation from healthy donor leukopak products as well as from sickle peripheral blood apheresis waste bags. Human naïve and memory B cells were isolated from PBMCs using a human memory B Cell Isolation Kit (Miltenyi Biotec) by collecting CD27− B cells (naïve B cells) and CD27+ B cell (memory B cells) separately. […] RPMI 1640 culture medium was used for all cell culture experiments (supplemented with 10% FBS, 100-unit penicillin-streptomycin, […], 1 mM sodium pyruvate, all from Thermo Fisher Scientific). Purified B cells were stained with CFSE (Cat #: C34554, Thermo Fisher Scientific) and cultured in U-bottom 96 well plates (2.5×10^5/well/200 μl culture medium) in the presence of goat anti-human IgA+IgG+IgM (H+L) F(ab′)2 fragment (2.5 μg/ml, Jackson ImmunoResearch), CD154 (10 ng/ml, R&D Systems) and CpG (ODN 7909, 1 nM, Cat #: tlrl-2006-1) without IL-2 for analysis of only CD38+ plasmablast differentiation or with IL-2 (5 ng/ml, Cat #:1081-IL-020, R&D Systems) in experiments to detect CD27^hiBlimp-1+ plasma cells. In addition, heme and various inhibitors were added to the cultures at the start point and incubated for 7 days.
# (§1) Cultured cells: stimulated B cells were transferred into U bottom 96 well plate and washed with 200 μl MACS buffer (D-PBS containing 0.5% BSA and 2 mM EDTA) at 300×g for 5 min at 4° C. After one wash, cells were stained for surface expression of CD19, CD38, CD27 using 25 μl staining buffer (anti-CD19, CD38, CD27 antibodies, diluted 200 fold with MACS buffer) for 30 min at 4° C. After one wash with 200 μl MACS buffer, cells were resuspended in 100 μl D-PBS and 50 μl Fixable Viability Dye eFluor™ 780 (1000 fold diluted with D-PBS, Thermo Fisher Scientific) was added for dead cell detection for 5 min at room temperature. Cells were washed one time with MACS buffer and 100 μl D-DPS was added just before flow cytometric analysis (LSRFortessa flow cytometer, BD Bioscience). For intracellular staining of IgG, Blimp-1 and HO-1, samples were first washed with 200 μl MACS buffer before addition of 150 μl Fixation/Permeabilization buffer (Thermo Fisher Scientific) for 45 min at 4° C. After fixation, samples were washed twice with 1× Permeabilization buffer (Thermo Fisher Scientific) and stained with 25 μl intracellular staining buffer (anti-human IgG, DOCK8, Blimp-1, HO-1 antibodies, diluted 200 fold with 1× Permeabilization buffer) for 45 min at 4° C., after which the cells were washed twice with Permeabilization buffer and 100p D-DPS was added prior to flow cytometric analysis.
# HO-1 = HO-1 expression in stimulated B cells; format: cell-based, human; details: for HO-1 upregulation: 2.5 μM compound with 5 μM heme
# From the text: HO-1 is a key enzyme for heme degradation with multiple biologic activities attributed to its enzymatic byproducts. We analyzed HO-1 expression levels in human B cells before and after stimulation with our polyclonal B cell activation cocktail. […] We also found higher HO-1 levels in DOCK8^hi plasma cells (FIG. 8B).
# [2] = test system: NLRP3 inflammasome pathway; assay: NLRP3 inflammasome activation, IL-1β secretion by LPS-primed monocytes; format: cell-based, human; details: in the presence/absence of hemin
# Experimental: FIG. 13A-D depicts human monocytes isolated from peripheral blood were cultured with LPS for 3 hours to prime pro-IL-1β production followed by addition of various NLRP3 pathway agonists to trigger IL-1β secretion without or with therapeutic reagents including hemin, quinine or hemin plus quinine (all at 2.5 μM concentration for all experiments except the dose response studies in FIGS. 13B and C). Levels of IL-1β, IL-6 and TNF-α in the culture supernatants was analyzed 30 min (for ATP treatment) or 2 hours (for nigericin and imiquimod) after addition of NLRP3 agonists. FIG. 13A: The effect of hemin, quinine and hemin plus quinine on IL-1β secretion triggered by various NLRP3 agonists. FIG. 13B: The dose dependent effect of hemin, quinine and hemin plus quinine. FIG. 13C: The effect of QA, CQ, AQ, and DHA in the presence/absence of hemin. FIG. 13D: The effect of hemin, quinine, or hemin plus quinine on IL-6 and TNF-α.
# [3] = test system: naïve B cells from Allo(−) and Allo(+) SCD patients; assay: 7-day stimulated naïve B cell culture from SCD patients; format: cell-based, human; details: for effect on heme-mediated inhibition of plasmablast differentiation: SnPPIX 2.5 μM, heme 2.5 μM
# Experimental: Human samples. All studies were approved by the institutional Review Boards of the New York Blood Center (NYBC) and Montefiore Health Center. […] The blood samples from SCD patients were processed within 18 hours after collection. For circulating DOCK8 expression studies in healthy controls, peripheral blood samples from de-identified, race-matched healthy donors were used. Leukocyte enriched products from de-identified healthy donors were used for purification of B cells for in vitro culture studies.
# Cell isolation and culture. Peripheral blood mononuclear cells (PBMCs) were prepared by Ficoll (GE Healthcare) density gradient centrifugation from healthy donor leukopak products as well as from sickle peripheral blood apheresis waste bags. Human naïve and memory B cells were isolated from PBMCs using a human memory B Cell Isolation Kit (Miltenyi Biotec) by collecting CD27− B cells (naïve B cells) and CD27+ B cell (memory B cells) separately. […] In addition, heme and various inhibitors were added to the cultures at the start point and incubated for 7 days.
# as §1
# DOCK8 = DOCK8 expression and DOCK8hi/DOCK8lo subsets in stimulated B cells; format: cell-based, human; details: quinine in the presence of heme
# From the text: We next tested the effect of cell-free heme on DOCK8 signaling during B cell differentiation. […] Heme treatment led to inhibition of CD27^hiBlimp-1^+ plasma cell differentiation (FIG. 2D, p=0.0195).
# SCD mice = assay: RBC alloimmunization in SCD mice after huGPA RBC transfusion (anti-GPA antibody in plasma); format: in vivo, mouse; details: QA 12 mg/kg intraperitoneally twice per day
# Experimental: FIG. 10A-C. Effects of heme and quinine on mouse B cell differentiation in vitro: Splenic B cells were purified from C57BL/6J mice (n=3), stained with CFSE and cultured (5×10^4/well) for 7 days in the presence of anti-mouse IgM, IgG F(ab)′2 (10 μg/ml), anti-mouse CD40 antibody (1 μg/ml) and CpG (ODN1826) (1 μg/ml) without or with different doses of quinine and in the absence or presence of 2.5 μM or 5 μM concentration of hemin. Fold difference in proliferated B cells (FIG. 10A) and CD138+ plasma B cells (FIG. 10B) are shown. FIG. 10C: Representative experiment in SCD mice following transfusion of RBCs expressing human GPA (huGPA RBCs) collected from mice transgenic for human GPA in the absence or presence of quinine (QA). Briefly, mice were transfused twice with […] of huGPA RBCs, each transfusion given one week apart. Mice were treated intraperitoneally twice per day with QA (12 mg/kg, reported to maintain serum quinine levels at 0.5~1 μM) or the same volume PBS. Levels of anti-GPA antibody in plasma were measured 7 days after the last transfusion by flow cytometry.
# [4] = QA 12 mg/kg intraperitoneally twice per day; cited from earlier work
molecule,measurement,setting,value
"CCN(CC)Cc1cc(Nc2ccnc3cc(Cl)ccc23)ccc1O [AQ, amodiaquine]",effect on plasma cell differentiation without or with heme,[1],inhibited plasma cell differentiation in the absence or presence of heme
same,HO-1 upregulation,HO-1,not
same,effect of other hemin binding small molecules on the inflammasome activation pathway,[2],no inhibitory effect
"NCC(=O)O.[C-]#[O+].[C-]#[O+].[C-]#[O+].[Cl][Ru] [CORM-3, carbon monoxide releasing molecule-3]",inhibition of B cell proliferation,[1],38.7%±5.0%
same,inhibition of plasma cell differentiation,[1],91.2%±2.9%
"CCN(CC)CCCC(C)Nc1ccnc2cc(Cl)ccc12 (stereo not shown) [CQ, chloroquine]",effect on plasma cell differentiation without or with heme,[1],inhibited plasma cell differentiation in the absence or presence of heme
same,HO-1 upregulation,HO-1,not
same,effect of other hemin binding small molecules on the inflammasome activation pathway,[2],no inhibitory effect
"C[C@H]1[C@@H](O)O[C@@H]2O[C@@]3(C)CC[C@H]4[C@H](C)CC[C@@H]1[C@@]24OO3 [DHA, dihydroartemisinin]",effect of other hemin binding small molecules on the inflammasome activation pathway,[2],no inhibitory effect
"C=Cc1c2[n-]c(c1C)/C=c1\[n-]/c(c(C)c1C=C)=C\c1[n-]c(c(CCC(=O)O)c1C)C=c1[n-]/c(c(C)c1CCC(=O)O)=C\2.[Sn+4] [SnPPIX, tin protoporphyrin IX]",effect on heme-mediated inhibition of plasmablast cell differentiation,[1]; SnPPIX 2.5 μM with heme 2.5 μM,reversed
same,effect on differentiation,[1]; SnPPIX alone 2.5 μM,no effect
same,frequency of CD38+ plasmablasts,"[1]; SnPPIX alone 2.5 μM, vs 6.3%±2.7%",8.1%±3.5%
same,effect on B cell proliferation,"[1]; heme 2.5 μM, SnPPIX 2.5 μM, alone or together",little to no effect
same,effect on heme-mediated inhibition of plasmablast differentiation,[3]; Allo(+) SCD patients,less effect
same,effect on heme-mediated inhibition of plasmablast differentiation,[3]; Allo(−) SCD patients,reversed heme-mediated inhibition
same,"B cell proliferative responses, Allo(+) versus Allo(−)",[3]; in the presence of SnPPIX 2.5 μM,comparable
Cl.Cl.NCCNc1ncc(C(N)=O)c(Nc2cccc(C(F)(F)F)c2)n1 [Syk Inhibitor II],HO-1 in stimulated B cells,HO-1; SYK inhibitor relative to no SYK inhibitor,induction of HO-1
C=CC1=C(C)/C(=C/C2=NC(=C\c3[nH]c(/C=C4\NC(=O)C(C)=C4C=C)c(C)c3CCC(=O)O)/C(CCC(=O)O)=C2C)NC1=O [biliverdin],inhibition of B cell proliferation,[1],13.3%±3.5%
same,inhibition of plasma cell differentiation,[1],68.4%±18.6%
"C=C[C@H]1C[N@@]2CC[C@H]1C[C@H]2[C@H](O)c1ccnc2ccc(OC)cc12 [quinine, (R)-(6-Methoxyquinolin-4-yl)[(1S,2S,4S,5R)-5-vinylquinuclidin-2-yl]methanol]",effect on plasma cell differentiation without or with heme,[1],required the presence of heme
same,cytotoxic effects (viability studies),[1]; except at the highest doses of heme plus quinine,minimal cytotoxic effects
same,effect on resistance to heme suppression,"[3]; Allo(+) patients, quinine plus heme",reversed resistance to heme suppression
same,effect on heme-mediated suppression of plasma cells,"[3]; Allo(−) SCD patients, quinine plus heme",further increased heme-mediated suppression
same,effect on plasma cell differentiation in the absence of heme,[3]; both groups of SCD patients,weak but significant inhibitory effect
same,effect on DOCK8 expression,DOCK8,no significant effect
same,RBC alloimmunization levels in vivo,SCD mice,did not lower
same,serum quinine levels,[4],0.5~1 μM
B1,effect of pre-incubation with hemopexin on inhibition by RBC lysate or free heme,"[1]; hemopexin 2.5 μM, RBC lysate 1 g/L hemoglobin or heme 2.5 μM",reversed the inhibitory effect
